Data from article PMC10626578, “Designed switch from covalent to non-covalent inhibitors of carboxylesterase Notum activity” (European Journal of Medicinal Chemistry, 2023).
Structures can show the parent of a compound that is named as a salt.

Each molecule was assayed against T1, Notum (core, 81–451C330S) (Homo sapiens, UniProt Q6P988, C330S) (assay: Notum-OPTS biochemical assay, Notum (81–451C330S)). Conditions: Table 2; mean ± s.d. of n = 4–12; >10 = 20–50% inhibition @ 10 μM; read-out: Notum IC50.
T1 construct: high-throughput biochemical assay with Notum (81–451C330S) and OPTS as a synthetic fluorescent substrate; made in house
T1 sequence (Q6P988 81-451 C330S): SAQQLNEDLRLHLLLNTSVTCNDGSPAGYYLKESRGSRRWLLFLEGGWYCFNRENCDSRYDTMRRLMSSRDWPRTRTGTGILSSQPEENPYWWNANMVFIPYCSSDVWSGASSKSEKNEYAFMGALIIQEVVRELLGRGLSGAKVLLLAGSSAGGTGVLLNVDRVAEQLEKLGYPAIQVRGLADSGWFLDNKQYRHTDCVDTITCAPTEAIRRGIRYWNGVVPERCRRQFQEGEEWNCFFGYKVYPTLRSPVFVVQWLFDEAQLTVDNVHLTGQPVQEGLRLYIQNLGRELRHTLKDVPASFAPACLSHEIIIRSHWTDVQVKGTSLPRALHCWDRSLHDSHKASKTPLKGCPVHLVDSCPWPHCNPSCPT
Method: Notum inhibitors 3–5 (Table 1, Table 2, Table 3, Table 4) were either purchased or prepared using established synthetic methods from readily available starting materials (Scheme 1). Where necessary, the synthesis of many of these amines (e.g. 6) have been reported previously and full details of their preparation have been included in the Experimental Section. Notum inhibition activity was determined using the standard Notum-OPTS biochemical assay using IC50 values. These values were used to compare relative activities with covalent inhibitors under carefully regulated assay conditions. […] Selected inhibitors were screened for inhibition of Notum activity in a TCF/LEF Reporter (Luciferase) cell line with exogenous WNT3a and Notum, and soaked into Notum crystals to determine their binding modes and evidence of MoA.
Methods have been described in detail.

| IC50 | Structure (SMILES) |
| --- | --- |
| 670 ± 80 nM | COc1ccc2c(c1)CCN2C(C)=O [Compound 4t, 1-(5-Methoxyindolin-1-yl)ethan-1-one] |
| 520 ± 50 nM | CC(=O)N1CCc2cc(C(F)(F)F)ccc21 [Compound 4u, 1-(5-(Trifluoromethyl)indolin-1-yl)ethan-1-one] |
| 2200 ± 600 nM | CC(=O)N1CCc2ccc(Cl)c(Cl)c21 [Compound 4x, 1-(6,7-Dichloroindolin-1-yl)ethan-1-one] |

Same assay, conditions: Table 4; mean ± s.d. of n = 4–8; >10 = 20–50% inhibition @ 10 μM; read-out: Notum IC50

| Structure (SMILES) | IC50 |
| --- | --- |
| CC(=O)N1CCOc2c(Cl)cccc21 [Compound 5e, 1-(8-Chloro-2,3-dihydro-4H-benzo[b][1,4]oxazin-4-yl)ethan-1-one] | 8500 ± 2100 nM |
| O=C1OCC2Cc3ccccc3N12 (stereo not shown) [Compound 5h, 9,9a-Dihydro-1H,3H-oxazolo[3,4-a]indol-3-one] | 6100 ± 700 nM |
| O=C1COCC2Cc3ccccc3N12 (stereo not shown) [Compound 5i, 10,10a-Dihydro-1H-[1,4]oxazino[4,3-a]indol-4(3H)-one] | 1600 to 10000 nM |
| CCN1CCc2c(Cl)cccc21 [Compound 5o, 4-Chloro-1-ethylindoline hydrochloride] | > 10000 nM |

Next, values leading:

| IC50 | Structure (SMILES) |
| --- | --- |
| 4400 ± 300 nM | CC(C)C(=O)N1CC2(CC2)c2c(Cl)cccc21 [Compound 5a, 1-(4′-Chlorospiro[cyclopropane-1,3′-indolin]-1′-yl)-2-methylpropan-1-one] |
| 730 ± 40 nM | CC(=O)n1ccc2c(Cl)cccc21 [Compound 5c, 1-(4-Chloro-1H-indol-1-yl)ethan-1-one] |
| 1200 ± 400 nM | O=C1CCC2Cc3cc(Cl)ccc3N12 (stereo not shown) [Compound 5j, 7-Chloro-1,2,9,9a-tetrahydro-3H-pyrrolo[1,2-a]indol-3-one] |
| 490 ± 30 nM | O=C1CCC2Cc3c(Cl)cccc3N12 (stereo not shown) [Compound 5k, 8-Chloro-1,2,9,9a-tetrahydro-3H-pyrrolo[1,2-a]indol-3-one] |
| 2100 ± 310 nM | CC12CCC(=O)N1c1ccccc1C2 (stereo not shown) [Compound 5l, 3a-Methyl-3,4-dihydro-2H-pyrrolo[1,2-a]indol-1-one] |
| 3600 ± 670 nM | Clc1ccc2c(c1Cl)CCN2 [Compound 5n, 4,5-Dichloroindoline] |
